Measurements: US20060020022A1, “Enantioselective separation method” (PHARMACIA & UPJOHN COMPANY LLC, priority 2004, published 2006)

Key:
[1] = Photoracemization in ethanol in a 400-mL photoreactor with 450 W UV lamp, e.e. by enantioselective HPLC; assay type: physicochemical
Procedure: The mixture was irradiated and aliquots were taken at about time=0, 12, 24, 41, 60, 87, 105, 135, and 162 minutes and analyzed by HPLC.
The natural logarithm of e.e. at each time point was determined for each aliquot.
Half-lives (minutes) and specific half-lives (minutes per gram) were calculated for each concentration.
(§1) Using the procedure of Example (E), 10-g of (R)-8-ethyl-6-trifluoromethoxy-2-trifluoromethyl-2H-chromene-3-carboxylic acid was dissolved in 400 mL of ethanol to a concentration of 25-mg/mL, and the mixture was filtered to remove a small amount of insoluble material. The filtrate was placed in the photoreactor and irradiated.
as §1, with “(R)-6,8-dimethyl-2-trifluoromethyl-2H-chromene-3-carboxylic” for “(R)-8-ethyl-6-trifluoromethoxy-2-trifluoromethyl-2H-chromene-3-carboxylic”

[2] = Photoracemization in ethanol in a quartz cuvette under a UV spot lamp, e.e. by enantioselective HPLC; assay type: physicochemical; conditions: for ln (e.e.): 66.7-mg/mL in ethanol; for e.e. by HPLC after irradiation: 50-mg/mL in ethanol, start 21% e.e. of (S), 4 W/cm^2
Procedure: Using a column with 0.46 cm inner diameter and 250 mm length filled with […]® AD stationary phase, a 10 μL injection volume, by eluting at room temperature with mobile phase (volume proportions) 95%/5% heptane:ethanol with 0.1% trifluoroacetic acid, at room temperature, flow rate at 1 mL/minute isocratic, and detected with a photodiode array detector at 254 nm wavelength, and a run time of 10 minutes.
A 1.0-mg/mL solution of (S)-6-chloro-7-tert-butyl-2-trifluoromethyl-2H-chromene-3-carboxylic acid in ethanol was placed in a quartz cuvette and irradiated with light from a UV spot lamp that produced a 5 mm diameter spot of UV light (320-390 nm wavelength) at 4 W/cm^2 intensity.
The first aliquot was placed in a quartz cuvette and irradiated in 90-second intervals over 25 minutes with light from a UV spot lamp that produced a 5 mm diameter spot of UV light (320-390 nm wavelength) at 4 W/cm^2 intensity to give a solution with 7.4% e.e. by HPLC. The second aliquot was placed in a quartz cuvette and irradiated continuously over 25 minutes with light from the UV spot lamp to give a solution with 12% e.e. by HPLC.
A 40-mg/mL solution of (S)-6-chloro-7-tert-butyl-2-trifluoromethyl-2H-chromene-3-carboxylic acid in ethanol was placed in a quartz cuvette and irradiated with light from a UV spot lamp that produced a 5 mm diameter spot of UV light (320-390 nm wavelength) at 4 W/cm^2 intensity. Aliquots were taken at time=0, 1, 2, 4, 8, 12, and 16 minutes and analyzed by HPLC. The experiment was repeated. A rate constant k for each of the two experiments (k1 and k2) was calculated using the following equation: [formula] wherein t is the time in minutes, C is the concentration of chromene in moles per liter, and ln (e.e.) is the natural logarithm of percent enantiomeric excess. The rate constant k1 was 0.0764/minute and k2 was 0.0787/minute. A half-live τ for each of the two experiments (τ1 and τ2) was calculated using the following equation: [formula] […] A specific half-life of about 30 minutes per gram of enantiomer was calculated.
The procedure of Example (C) was repeated except the concentration of (S)-6-chloro-7-tert-butyl-2-trifluoromethyl-2H-chromene-3-carboxylic acid in ethanol was 66.7-mg/mL. Aliquots were taken at time=0, 1, 2, 4, 8, 12, and 16 minutes and analyzed by HPLC. The natural logarithm of e.e. at each time point was determined for each aliquot. […] The natural logarithm of e.e. data is provided below in Table 1 in the row labeled “ln (e.e.).”

[3] = 10-g in 400 mL ethanol, 25-mg/mL, t=5 minutes

For `Cc1cc(C)c2c(c1)C=C(C(=O)O)[C@H](C(F)(F)F)O2` [(R)-6,8-dimethyl-2-trifluoromethyl-2H-chromene-3-carboxylic acid], the “ln (e.e.)” value [1, 3] was “about 4.2” and the “ln (e.e.)” value ([1]; 10-g in 400 mL ethanol, 25-mg/mL, t=105 minutes) was “about 1.0”.

For `CC(C)(C)c1cc2c(cc1Cl)C=C(C(=O)O)[C@H](C(F)(F)F)O2` [(R)-6-chloro-7-tert-butyl-2-trifluoromethyl-2H-chromene-3-carboxylic acid], the “τ” value ([1]; 4.00 g enantiomer, 10.0 mg/mL in ethanol) was 9.08 min, the “τ” value ([1]; 8.00 g enantiomer, 20.0 mg/mL in ethanol) was 16.38 min and the “τ” value ([1]; 10.00 g enantiomer, 25.00 mg/mL in ethanol) was 19.68 min. The “τ” value ([1]; 13.00 g enantiomer, 32.5 mg/mL in ethanol) was 22.57 min, the “τ” value ([1]; 16.00 g enantiomer, 40.0 mg/mL in ethanol, from Example (E)) was 31.65 min and the rate constant k ([1]; 16 g in 400 mL ethanol, 40-g/L) was 0.0109 min⁻¹. For the same molecule, the “τ” value ([1]; 20.04 g enantiomer, 50.1 mg/mL in ethanol) was 31.39 min, the “ln (e.e.)” value ([1]; 40-g/L in ethanol, time 0 minutes) was 4.5 and the “ln (e.e.)” value ([1]; 40-g/L in ethanol, time 12 minutes) was 4.3. The “ln (e.e.)” value ([1]; 40-g/L in ethanol, time 24 minutes) was 4.0, the “ln (e.e.)” value ([1]; 40-g/L in ethanol, time 41 minutes) was 3.6 and the “ln (e.e.)” value ([1]; 40-g/L in ethanol, time 60 minutes) was 3.2. The “ln (e.e.)” value ([1]; 40-g/L in ethanol, time 87 minutes) was 2.7, the “ln (e.e.)” value ([1]; 40-g/L in ethanol, time 105 minutes) was 2.2 and the “ln (e.e.)” value ([1]; 40-g/L in ethanol, time 135 minutes) was 1.6. The “ln (e.e.)” value ([1]; 40-g/L in ethanol, time 162 minutes) was 1.1.

In the case of `CCc1cc(OC(F)(F)F)cc2c1O[C@@H](C(F)(F)F)C(C(=O)O)=C2` [(R)-8-ethyl-6-trifluoromethoxy-2-trifluoromethyl-2H-chromene-3-carboxylic acid], the “ln (e.e.)” value [1, 3] is reported as “about 4.3” and the “ln (e.e.)” value ([1]; 10-g in 400 mL ethanol, 25-mg/mL, t=95 minutes) is reported as “about 1.4”.

For `CC(C)(C)c1cc2c(cc1Cl)C=C(C(=O)O)[C@@H](C(F)(F)F)O2` [(S)-6-chloro-7-tert-butyl-2-trifluoromethyl-2H-chromene-3-carboxylic acid], the “HPLC finding after UV irradiation” value ([2]; 1.0-mg/mL in ethanol, UV 320-390 nm at 4 W/cm^2, after 30 minutes) was “racemic mixture”, the “rate constant k1” value ([2]; 40-mg/mL in ethanol, first experiment) was 0.0764 min⁻¹ and the “rate constant k2” value ([2]; 40-mg/mL in ethanol, repeated experiment) was 0.0787 min⁻¹. For the same molecule, the “ln (e.e.)” value ([2]; time 0 minutes) was 4.4, the “ln (e.e.)” value ([2]; time 1 minute) was 4.3 and the “ln (e.e.)” value ([2]; time 2 minutes) was 4.2. For the same molecule, the “ln (e.e.)” value ([2]; time 4 minutes) was 4.0, the “ln (e.e.)” value ([2]; time 8 minutes) was 3.8 and the “ln (e.e.)” value ([2]; time 12 minutes) was 3.4. The “ln (e.e.)” value ([2]; time 16 minutes) was 3.3.

With `CC(C)(C)c1cc2c(cc1Cl)C=C(C(=O)O)C(C(F)(F)F)O2` [(S)- and (R)-6-chloro-7-tert-butyl-2-trifluoromethyl-2H-chromene-3-carboxylic acid] the “e.e. by HPLC after irradiation” value ([2]; irradiated continuously over 25 minutes) was 12% and the “e.e. by HPLC after irradiation” value ([2]; irradiated in 90-second intervals over 25 minutes) was 7.4%.
